# Target: T1, human Mnk2a (Homo sapiens, UniProt Q9HBH9)
# T1 construct: made in house; host or cells: E. coli BL21 (vector pGEX-4T1)
# Assay: Mnk2a in vitro kinase assay (indirect fluorescence polarization)
# Type: biochemical
# Conditions: GST-Mnk2a pre-activated with ERK2, 20 μM ATP, 30 μM substrate peptide; read-out: MNK2 IC50
# Summary of the method: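 Indirect competitive fluorescence polarization: kinase-generated phospho-product displaces a fluorophore-labelled phospho-peptide from a phospho-specific antibody. Enzyme is N-terminal GST-Mnk2a from E. coli, activated with pre-activated ERK2 and 50 μM ATP; substrate is an amidated 12-mer peptide around eIF4E Ser209.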
# T1 sequence (Q9HBH9 whole entry): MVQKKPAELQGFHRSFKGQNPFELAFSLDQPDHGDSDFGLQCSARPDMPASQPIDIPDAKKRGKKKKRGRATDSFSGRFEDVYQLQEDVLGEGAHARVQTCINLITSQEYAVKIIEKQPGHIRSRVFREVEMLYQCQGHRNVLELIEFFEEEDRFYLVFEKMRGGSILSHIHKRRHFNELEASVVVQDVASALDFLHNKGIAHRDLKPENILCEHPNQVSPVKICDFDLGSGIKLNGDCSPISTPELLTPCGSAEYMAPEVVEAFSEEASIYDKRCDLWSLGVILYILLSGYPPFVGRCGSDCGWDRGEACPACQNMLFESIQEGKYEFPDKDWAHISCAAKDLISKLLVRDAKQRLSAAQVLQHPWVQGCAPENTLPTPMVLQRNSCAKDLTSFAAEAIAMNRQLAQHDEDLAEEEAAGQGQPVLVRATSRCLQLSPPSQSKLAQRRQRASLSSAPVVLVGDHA
row,SMILES,IC50 [nM]
1,Cc1c(C(=O)NC2CCOC2)sc2ncnc(Nc3ccc(F)cc3OC3CCOCC3)c12 (stereo not drawn) [Example 202],70
2,Cc1c(C(=O)NCCN2CCCC2)sc2ncnc(Nc3ccc(F)cc3OC3CCOCC3)c12 [Example 209],69
3,Cc1c(C(=O)NCCCN2CCCC2)sc2ncnc(Nc3ccc(F)cc3O[C@@H]3CCOC3)c12 [Example 106],25
4,"Cc1c(C(N)=O)sc2ncnc(Nc3ccc(C#N)cc3O[C@H]3CCCNC3)c12 [Example 67, 4-[4-Cyano-2-((S)-piperidin-3-yloxy)-phenylamino]-5-methyl-thieno[2,3-d]pyrimidine-6-carboxylic acid amide]",46
5,Cc1c(C(N)=O)sc2ncnc(Nc3ccc(F)cc3O[C@H]3CCCN(CC(C)C)C3)c12 [Example 7],4400
6,Cc1c(C(=O)NCCCN2CCCC2=O)sc2ncnc(Nc3ccc(F)cc3OC3CCOCC3)c12 [Example 131],35
7,Cc1c(C(=O)NCc2cccc3ccccc23)sc2ncnc(Nc3ccc(F)cc3OC3CCCNC3)c12 (stereo not drawn) [Example 60],64
8,CCC(C)CNC(=O)c1sc2ncnc(Nc3ccc(F)cc3OC3CCCNC3)c2c1C (stereo not drawn) [Example 20],67
9,Cc1c(C(=O)NCCS(C)(=O)=O)sc2ncnc(Nc3ccc(F)cc3OC3CCOCC3)c12 [Example 180],33
10,"Cc1c(C(N)=O)sc2ncnc(Nc3ccc(F)cc3O[C@@H]3CCN(S(C)(=O)=O)C3)c12 [Example 99, 4-[4-Fluoro-2-((R)-1-methanesulfonyl-pyrrolidin-3-yloxy)-phenylamino]-5-methyl-thieno[2,3-d]pyrimidine-6-carboxylic acid amide]",6
11,Cc1c(C(=O)N[C@H]2C[C@@H]2N)sc2ncnc(Nc3ccc(F)cc3OC3CCOCC3)c12 [Example 144],47
12,CCNC(=O)c1sc2ncnc(Nc3ccc(F)cc3OC3CCOCC3)c2c1C [Example 227],47
13,Cc1c(C(=O)NCCCN2CCC(F)(F)C2)sc2ncnc(Nc3ccc(F)cc3OC3CCOCC3)c12 [Example 124],31
14,Cc1c(C(=O)NCCc2cccs2)sc2ncnc(Nc3ccc(F)cc3OC3CCCNC3)c12 (stereo not drawn) [Example 37],68
15,Cc1c(C(=O)NCCn2cc[nH]c2=O)sc2ncnc(Nc3ccc(F)cc3OC3CCOCC3)c12 [Example 179],166
16,Cc1c(C(=O)N[C@H]2CCN(C(=O)OC(C)(C)C)C[C@@H]2O)sc2ncnc(Nc3ccc(F)cc3OC3CCOCC3)c12 [Example 241],36
17,"COCC(=O)N1CCC(Oc2cc(F)ccc2Nc2ncnc3sc(C(N)=O)c(C)c23)C1 (stereo not drawn) [Example 94, 4-{4-Fluoro-2-[1-(2-methoxy-acetyl)-pyrrolidin-3-yloxy]-phenylamino}-5-methyl-thieno[2,3-d]pyrimidine-6-carboxylic acid amide]",300
18,Cc1c(C(=O)NCC(=O)O)sc2ncnc(Nc3ccc(F)cc3OC3CCOCC3)c12 [Example 149],37
19,Cc1c(C(=O)NCC2(N)CCCC2)sc2ncnc(Nc3ccc(F)cc3OC3CCOCC3)c12 [Example 140],92
20,Cc1c(C(=O)NCC2CCCO2)sc2ncnc(Nc3ccc(F)cc3OC3CCOCC3)c12 (stereo not drawn) [Example 217],49
21,Cc1c(C(=O)NC2CCN(C)CC2)sc2ncnc(Nc3ccc(F)cc3OC3CCN(S(C)(=O)=O)C3)c12 (stereo not drawn) [Example 91],51
22,Cc1c(C(=O)NCc2nccn2C)sc2ncnc(Nc3ccc(F)cc3O[C@H]3CCCNC3)c12 [Example 14],40
23,Cc1c(C(=O)NCc2ccccn2)sc2ncnc(Nc3ccc(F)cc3OC3CCOCC3)c12 [Example 219],33

row,SMILES,IC50 [nM]
1,Cc1c(C(=O)NC2CCCC(O)C2)sc2ncnc(Nc3ccc(F)cc3OC3CCOCC3)c12 (stereo not drawn) [Example 192],42
2,Cc1c(C(=O)NCC(C)(C)Cl)sc2ncnc(Nc3ccc(F)cc3OC3CCCNC3)c12 (stereo not drawn) [Example 48],75
3,Cc1c(C(=O)N[C@H]2CCNC[C@@H]2O)sc2ncnc(Nc3ccc(F)cc3OC3CCOCC3)c12 [Example 246],18
4,"Cc1c(C(N)=O)sc2ncnc(Nc3ccc(F)cc3O[C@@H]3CCCN(CC(F)F)C3)c12 [Example 74, 4-{2-[(R)-1-(2,2-Difluoro-ethyl)-piperidin-3-yloxy]-4-fluoro-phenylamino}-5-methyl-thieno[2,3-d]pyrimidine-6-carboxylic acid amide]",3
5,Cc1c(C(=O)NCCc2cn[nH]c2)sc2ncnc(Nc3ccc(F)cc3OC3CCCNC3)c12 (stereo not drawn) [Example 28],65
6,"Cc1c(C(=O)NC#N)sc2ncnc(Nc3ccc(F)cc3O[C@@H]3CCOC3)c12 [Example 100, (R)—N-cyano-4-(4-fluoro-2-(tetrahydrofuran-3-yloxy)phenylamino)-5-methylthieno[2,3-d]pyrimidine-6-carboxamide]",5
7,Cc1c(C(=O)N[C@@H]2CC[C@H](N)C2)sc2ncnc(Nc3ccc(F)cc3OC3CCOCC3)c12 [Example 142],38
8,"Cc1c(C(=O)NCCCN(C)C)sc2ncnc(Nc3cccnc3O[C@H]3CCOC3)c12 [Example 270, 5-Methyl-4-{2-[(S)-(tetrahydro-furan-3-yl)oxy]-pyridin-3-ylamino}-thieno[2,3-d]pyrimidine-6-carboxylic acid (3-dimethylamino-propyl)-amide]",298
9,"COCCN1CCC[C@H](Oc2cc(F)ccc2Nc2ncnc3sc(C(N)=O)c(C)c23)C1 [Example 1, 4-{4-Fluoro-2-[(S)-1-(2-methoxy-ethyl)-piperidin-3-yloxy]-phenylamino}-5-methyl-thieno[2,3-d]pyrimidine-6-carboxylic acid amide]",490
10,Cc1c(C(N)=O)sc2ncnc(Nc3ccc(F)cc3O[C@@H]3CCCN(Cc4nccs4)C3)c12 [Example 78],28
11,Cc1c(C(=O)NCc2ccc(OC(C)C)cc2)sc2ncnc(Nc3ccc(F)cc3OC3CCCNC3)c12 (stereo not drawn) [Example 63],43
12,Cc1c(C(=O)NCCOCCO)sc2ncnc(Nc3ccc(F)cc3OC3CCCNC3)c12 (stereo not drawn) [Example 50],72
13,Cc1c(C(=O)NCCS(=O)(=O)N(C)C)sc2ncnc(Nc3ccc(F)cc3OC3CCCNC3)c12 (stereo not drawn) [Example 47],51
14,Cc1c(C(=O)NC(CO)CO)sc2ncnc(Nc3ccc(F)cc3OC3CCOCC3)c12 [Example 153],113
15,Cc1c(C(N)=O)sc2ncnc(Nc3ccc(F)cc3O[C@H]3CCCN(C)C3)c12 [Example 8],80
16,Cc1c(C(=O)NCC2(C)CCN(C)C2)sc2ncnc(Nc3ccc(F)cc3OC3CCOCC3)c12 (stereo not drawn) [Example 204],66
17,Cc1c(C(=O)N[C@H]2CC[C@H](O)CC2)sc2ncnc(Nc3ccc(F)cc3OC3CCOCC3)c12 [Example 173],39
18,Cc1c(C(=O)NCCCO)sc2ncnc(Nc3ccc(F)cc3O[C@H]3CCCNC3)c12 [Example 16],30
19,Cc1c(C(=O)NCc2cn(C)cn2)sc2ncnc(Nc3ccc(F)cc3OC3CCOCC3)c12 [Example 184],22
20,"CONC(=O)c1sc2ncnc(Nc3ccc(F)cc3O[C@@H]3CCOC3)c2c1C [Example 102, 4-{4-Fluoro-2-[(R)-(tetrahydro-furan-3-yl)oxy]-phenylamino}-5-methyl-thieno[2,3-d]pyrimidine-6-carboxylic acid methoxy-amide]",32
21,Cc1c(C(=O)NCCOC(C)C)sc2ncnc(Nc3ccc(F)cc3OC3CCOCC3)c12 [Example 232],45
22,Cc1c(C(=O)NC2CN(C)C2)sc2ncnc(Nc3ccc(F)cc3OC3CCOCC3)c12 [Example 200],69
